Columns and labels:
NB4 cells [1] = test: ATRA-induced NB4 cell differentiation (morphology, CD11B/CD16 flow cytometry, NBT reduction test); format: cell-based, human; details: 1 μM ATRA
Protocol: (§1) Leukemia cell lines. NB4 cells were a gift (Dr. James R. Downing, St. Jude Children's Research Hospital) and other leukemia cell lines (K562, U937 and HL-60) were purchased from ATCC (Manassas, Va.). All leukemia cell lines were cultured in RPMI 1640 medium plus 10% fetal calf serum. Cells (1×10^6) were treated with or without 1 μM ATRA (Sigma, St. Louis, Mo.) for 12, 24, 48, 72, and 96 hours at 37° C. in a 5% CO2 incubator in darkness. All experiments were repeated three times.
(§2) Assessment of cell differentiation. ATRA-induced NB4 cell differentiation was evaluated by morphological assessment, by flow cytometry for expression of cell surface antigens related to granulocytic differentiation and maturation such as CD11B/CD18-integrins (Gahmberg C G, Curr. Opin. Cell Biol. 9: 643-650, 1997) and by the nitroblue tetrazolium (NBT) reduction test, which measures myelocyte maturity (Idres N et al., Cancer Res. 61: 700-705, 2001). For cell cycle analysis, the cells were stained with propidium iodide (PI) and analyzed by a fluorescence-activated cell sorting analysis.

newly diagnosed APL = details: ATRA therapy; cited from earlier work
NB4 cells [2] = test: RT-PCR analysis of CD52 mRNA in NB4 cells; format: cell-based, human; details: ATRA 12-96 hr, not detectable in untreated cells
Protocol: (§3) Reverse transcriptase (RT)-PCR. NB4 cells were cultured and treated with or without ATRA as described above. Some assays were performed using other cell lines including the erythroblastic leukemia cell line K562, the monocytic leukemia cell line U937 and the HL-60 cell line, a human myeloblastic leukemia cell line lacking the t(15; 17) translocation. Total RNA was isolated from the cells and used for CD52 cDNA synthesis by RT-PCR. The cDNA was synthesized in a 20 μl reaction mixture containing 5 μg RNA, 5 mM dNTP, 0.1 μg random primers and 200 U reverse transcriptase, and the mixture was incubated at 42° C. for 1 hr. The cDNA was amplified for 30 cycles with denaturation at 94° C. for 30 seconds, annealing at 56° C. for 30 seconds and extension at 72° C. for 1 min. Amplified products were sequenced and confirmed by comparison with sequence data from GenBank.

[3] = system: erythroblastic leukemia line K562; test: Cell specificity of CD52 induction by ATRA, flow cytometry, K562; format: cell-based; details: K562, ATRA 96 hours
Protocol: as §1
(§4) Flow cytometry. APL cells were treated as described above with 1 μM of ATRA for 24, 48, 72, and 96 hrs, and cell differentiation was evaluated by changes in cell morphology, CD11B and CD18 expression, and the NBT reduction test. ATRA treated cells (1×10^6) were stained with CD18-FITC (Becton Dickinson Biosciences San Jose, Calif.), CD11B-PE, and CD52-FITC antibodies (both from Serotec) following manufacturer's instructions. […] Samples were analyzed in triplicate.
(§5) Cell specificity of CD52 expression induction by ATRA. To determine the cell specificity of ATRA-induced CD52 expression, other leukemia cell lines were tested and compared with NB4 under assay conditions used for the NB4 cells.

NB4 cells [4] = test: Western blot analysis of CD52 protein in NB4 cells; format: cell-based, human; details: ATRA-treated vs untreated
Protocol: Western blot analysis. Cell lysates from control and ATRA-treated NB4 cells were separated on a 4%-20% gradient SDS-polyacrylamide gel and then transferred to PVDF membrane (Millipore, Bedford, Mass.) using a semidry electroblot chamber. The membrane was blocked overnight with 5% dry-milk in Tris-buffered saline and then incubated with anti-CD52 antibody (Serotec, Inc., Raleigh, N.C.) for 1 hour at room temperature. The binding of primary antibody was detected by using peroxidase-coupled second antibody (Sigma). Bound peroxidase was detected by the Super Signal Substrate (Pierce, Rockford, Ill.).

NB4 cells [5] = test: Flow cytometry of CD52, CD11B, CD18 surface expression in NB4 cells
HL-60 cells = test: Cell specificity of CD52 induction by ATRA, flow cytometry, HL-60; format: cell-based, human; details: HL-60, lacking t(15;17), ATRA 96 hours
Protocol: as §1
as §3, with “The cDNA was amplified for 30 cycles with denaturation at 94° C. for 30 seconds, annealing at 56° C. for 30 seconds and extension at 72° C. for 1 min. Amplified products were sequenced and confirmed by comparison with sequence data from GenBank.” left out
Flow cytometry. APL cells were treated as described above with 1 μM of ATRA for 24, 48, 72, and 96 hrs, and cell differentiation was evaluated by changes in cell morphology, CD11B and CD18 expression, and the NBT reduction test. […] Samples were analyzed in triplicate. […]

NB4 cells [6] = test: cDNA microarray analysis of ATRA-induced NB4 cell gene expression; details: 96 hr
NB4 cells [7] = test: Cell cycle analysis of ATRA-treated NB4 cells (propidium iodide, flow cytometry); format: cell-based, human; details: 1 μM ATRA, 12-96 hrs, PI staining
Protocol: as §1, §2

[8] = system: monocytic leukemia cell line U937; test: Cell specificity of CD52 induction by ATRA, flow cytometry, U937; format: cell-based; details: U937, ATRA 96 hours
Protocol: as §1, §4, §5

[9] = cited from earlier work
[10] = system: normal and malignant lymphocytes; details: clinical studies; cited from earlier work

## CC1=C(/C=C/C(C)=C/C=C/C(C)=C/C(=O)O)C(C)(C)CCC1 [ATRA, all-trans-retinoic acid]
NB4 cells [1]; 24 to 96 hrs and later
  maximal differentiation (CD11B+ and NBT+ cells): 85%
NB4 cells [1]; end of 24 hrs
  morphologic change in NB4 cells: No obvious morphologic change
NB4 cells [1]; flow cytometry
  CD16 expression: failed to express CD16
Newly diagnosed APL
  complete remission of patients: up to 85%
NB4 cells [2]
  expression of CD52 mRNA: rapidly induced
[3]
  CD11B expression: did not induce
  CD52 expression: did not induce
NB4 cells [4]
  CD52 protein bands of 21-28 kDa: only detected in ATRA-treated cells
NB4 cells [5]; 1 μM ATRA, 48 to 96 hr
  maximal CD52 surface expression: ~90%
NB4 cells [5]; 96 hr of ATRA exposure
  cell population co-expressing CD11B and CD52: approximately 80%
  cells expressing only CD11B: approximately 10%
  cells expressing only CD52: approximately 5%
NB4 cells [5]; NB4, ATRA 96 hours
  up-regulation of both CD11B and CD52: robust up-regulation
HL-60 cells
  CD52 up-regulation: not up-regulated
NB4 cells [6]; 1 μM ATRA, peak
  CD52 mRNA expression, fold over control: 6.49 fold
NB4 cells [6]; ATRA
  expression of gene gf206—339D4, fold of control: more than 58 fold
NB4 cells [7]
  S-phase cells: decrease of S-phase cells
[8]
  expression of CD11B: slightly increased
  expression of CD52: did not affect

## CC1=C(/C=C/C(C)=C/C=C/C(C)=C/CO)C(C)(C)CCC1 [retinol]
[9]
  solubility in ethanol, methanol, ether, fats, and oil: soluble
  solubility in water or aqueous salt solutions: practically insoluble

## CAMPATH-1H: A humanized anti-CD52 monoclonal antibody
[10]
  depletion of normal and malignant lymphocytes in vivo: extremely effective

Reference: patent publication US20030124127A1, “Targeting leukemia cells” (priority 2001, published 2003)
